Assay results reported in ChEMBL document CHEMBL1166012, “New aryldithiolethione derivatives as potent histone deacetylase inhibitors” (Bioorg Med Chem, 2010).

Legend:
A549 = test: Antiproliferative activity against human A549 cells after 48 hrs; assay type: functional, cell-based; details: A549, 48 h
Histone deacetylase = test: Inhibition of HDAC in human HeLa cells extracts after 60 mins by fluorescence assay; assay type: cell-based

Work on `O=C(CCCCCCOc1ccc(-c2cc(=S)ss2)cc1)Nc1ccccc1` yielded an IC50 (A549) of 60.2 µM and an IC50 (Histone deacetylase) of 918.7 µM.
For `COc1cc(-c2cc(=S)ss2)ccc1OCC(=O)O`, the IC50 (A549) was 880 µM and the IC50 (Histone deacetylase) was 82.85 µM.
With `O=C(CCCCCCC(=O)Oc1ccc(-c2cc(=S)ss2)cc1)NO` the IC50 (A549) was 56 µM and the IC50 (Histone deacetylase) was 10 µM.
For `O=C(CCCCCCC(=O)Oc1ccc(-c2cc(=S)ss2)cc1)Nc1ccccc1`, the IC50 (A549) was over 1000 µM and the IC50 (Histone deacetylase) was 100 µM.
`O=C(CCCCCCC(=O)Nc1ccccc1)NOC(=O)c1csc(=S)s1` gave an IC50 (A549) of 3.4 µM and an IC50 (Histone deacetylase) of 0.25 µM.
With `O=C(O)c1csc(=S)s1` [ACS 5] the IC50 (A549) was over 1000 µM and the IC50 (Histone deacetylase) was 46.4 µM.
With `O=C(CCCCOc1ccc(-c2cc(=S)ss2)cc1)Nc1ccccc1` the IC50 (A549) was over 1000 µM and the IC50 (Histone deacetylase) was 50 µM.
With `O=C(CCCCOc1ccc(-c2cc(=S)ss2)cc1)NO` the IC50 (A549) was 5.4 µM and the IC50 (Histone deacetylase) was 0.08 µM.
For `Nc1ccccc1NC(=O)CCCCCCOc1ccc(-c2cc(=S)ss2)cc1`, the IC50 (A549) was 31.7 µM and the IC50 (Histone deacetylase) was 32 µM.
`O=C(CCCCCCC(=O)Nc1ccccc1)NOC(=O)c1ccc(-c2cssc2=S)cc1` gave an IC50 (A549) of 1.68 µM and an IC50 (Histone deacetylase) of 1.19 µM.
For `O=C(CCCCCCOc1ccc(-c2cc(=S)ss2)cc1)NO`, the IC50 (A549) was 6.1 µM and the IC50 (Histone deacetylase) was 0.01 µM.
Compound `O=C(O)c1ccc(-c2cssc2=S)cc1` has an IC50 (A549) of 103 µM and an IC50 (Histone deacetylase) of 100 µM.
